Series [1] has as its system PAO1 biofilm (72 h, transferred). Description: Transferred biofilm model. It counts as cell-based, P. aeruginosa. The conditions noted are these: 15 μg/mL TOB; 0.05 mg/mL MO-LCNPs; 24 h. The method, then:
Taking into account the toxicity data of the MO-LCNPs, additional biofilm activity studies were conducted to ensure a non-toxic concentration of MO-LCNPs maintained the activity of TOB in the MBEC Assay® PAO1 biofilm model. A variation in this biofilm model was employed to contrast the effect of the MO-LCNPs compared to the standard, MBEC® model. Briefly, from an overnight culture, PAO1 was diluted in M63 media to an OD of 0.01 in 500 μL in 24 well plates and incubated for 72 h at 37° C. to form biofilms. Breath seals were used to permit gas exchange during the 72 h incubation period. The 72 h biofilms were then washed with 200 μL PBS to remove planktonic bacteria. Then, using 500 μL of M63 buffer, the biofilms was scraped off from the bottom of the 24-well plate using a 1 mL pipette tip and transferred into a fresh plate. This formed microcolonies of biofilm that closely resembles the clinical environment. The treatments were then added on top of the biofilms and incubated for a further 24 h at 37° C. The treatments included 15 μg/mL of an unformulated TOB solution and TOB loaded in the MO-LCNPs
The amount of Pluronic F-127 in the MO-LCNPs TOB formulation was also varied to determine the effect the surface stabiliser had on the antimicrobial effect. […]

The subject of the next series is CFBE41o−. Format: cell-based, human. The procedure: Cell viability was assessed through taking the contents of the basolateral compartment media and reacting it with a Cytotoxicity Detection Kit (LDH) (Roche) to determine the amount of LDH released. 200 μL of the basolateral media was taken and centrifuged at 300×g for 10 mins. 100 μL of the supernatant was mixed with 100 μL of the reaction solution, as per manufacturer's instructions. LDH release was measured after 5-minute incubation at room temperature using a plate reader at an absorbance of 492 nm.

Another series relates to PAO1 biofilm. The experiment in a line: In vitro MBEC antibiofilm assay. It counts as cell-based, P. aeruginosa. To be noted: 5 μg/mL and 15 μg/mL TOB; 24 h. The procedure:
The pegs on lid of the MBEC Assay® were submerged into the bacterial suspension, with column 12 containing sterile LB broth as a negative control. The plate was incubated at 37° C. on a rotating gyrator for 24 h to form biofilm on the pegs. After 24 h, the peg lid was removed and transferred into another 96-well microtiter plate containing sterile water for 30 seconds before being transferred into a treatment plate. The peg lid in the treatment plate was incubated for 24 h at 37° C. on the rotating gyrator. In the first study, the effect of concentration variation of TOB in MO-LCNPs was determined. […] The respective controls included unloaded formulations MO-LCNP and […] at equivalent concentrations and 0.9% NaCl. […] In the second study, the difference in effect of MO- and […] compared to liposomes containing TOB was determined. […] The final concentration of MO and PHY was 0.25 mg/mL. Liposomes were prepared as described above. In the third study, TOB, AMI and GEN as unformulated solutions and loaded in MO-LCNPs were compared as treatments against PAO1 biofilms in the MBEC Assay®. The concentration of each antibiotic was 6 μg/mL. […] In all four different studies, the treatments were incubated with the PAO1 biofilm grown on the MBEC Assay® on a rotating plate at 37° C. After 24 h incubation, the peg lid was transferred to a fresh plate containing sterilized water to inhibit treatments. […]

The next series can be described thus: in vitro. Format: in vitro ADME. To be noted: human. The method, then:
The barrier integrity of the CFBE41o− cell line cultured on the Transwell® supports was determined by both TEER (Srinivasan B et aL, 2015, Journal of Laboratory Automation, 20(2): 107-126) and sodium fluorescein transport (Molenda N et al., 2014, PLOS ONE, 9(6): p. e100621). Due to the variation in TEER measurements, sodium fluorescein transport provided a direct measurement of the tight junctions. On day 7 (4 days after cells are transferred to ALI), cells were incubated basolaterally with 1.7 mL KRB buffer and apically with 520 μL of 10 μg/mL sodium fluorescein (in KRB) with or without 16 mM ethylenediaminetetraacetic acid (EDTA). EDTA disrupts the tight junctions of a cell barrier. At 30-minute intervals, 20 μL samples were taken from the basolateral compartment and replaced with fresh KRB. […] The samples were then measured and compared to a standard curve via fluorescent spectroscopy (Tecan® plate reader, Tecan Deutschland GmbH, Germany) at excitation and emission wavelengths of […], respectively. […]
After TOB treatments were nebulised, at 5, 15, 30, 60, 120, 240 and 1440 minutes, 100 μL sample was taken from the basolateral compartment and replaced with fresh MEM media. The sample was then filtered through 4 mm Millex® syringe filters before LC-MS/MS analysis, as described above, to quantify the transport of TOB.

The term Papp denotes the rate of passage across a membrane or cell layer, normalised by area and donor concentration. A high value points to fast passage. Take `NC[C@H]1O[C@H](O[C@H]2[C@H](O)[C@@H](O[C@H]3O[C@H](CO)[C@@H](O)[C@H](N)[C@H]3O)[C@H](N)C[C@@H]2N)[C@H](N)C[C@@H]1O` [unformulated TOB, tobramycin]: the “reduction in PAO1 load” value in series [1] is given as “two”. Moreover, the “epithelium cell monolayer viability” value in the series with CFBE41o− is given as “maintained the epithelium cell monolayer viability”. Besides, the “cell viability of the epithelium monolayer” value with CFBE41o− (human, 24 h) was “above 80%”. In addition, the “reduction of PAO1 load compared to the no treatment control” value in the series on PAO1 biofilm was found to be 2 log. In the series “in vitro”, this compound gave a Papp at 1440 min of 0.81 ×10⁻⁶ cm/s.

(Values after patent US12569508B2, “Antimicrobial compositions and methods of use” (priority 2020, dated 2026).)
